The structures appear in SMILES notation.

As usually defined, the melting point is the temperature, or range, at which the solid turns liquid. The compound `COc1ccc(-n2nc(C[C@H](C(=O)[O-])c3cccc(C)c3)cc2-c2ccc(Cl)c(Cl)c2)cc1.[Na+]` (stereo in doubt) [Example 505] returned a melting point of 280 to 285 °C.

The compound `COc1ccc(-n2nc(C[C@H](C(=O)[O-])c3cccc(C)c3)cc2-c2ccc(Cl)c(Cl)c2)cc1.[Na+]` [Example 1, (S)-Sodium; 3-[5-(3,4-dichloro-phenyl)-1-(4-methoxy-phenyl)-1H-pyrazol-3-yl]-2-m-tolyl-propionate] came in with a melting point of 295.5 to 297.5 °C.

In the case of `CON(C)C(=O)c1ccc(Cl)c(Cl)c1` [Example 511, 3,4-Dichloro-N-methoxy-N-methyl-benzamide], the melting point is 39.5 to 43.2 °C.

Source of the values: patent US7037931B2, “CCK-1 receptor modulators” (Janssen Pharmaceutica N.V., priority 2002, dated 2006).
